# “Also recorded” adds a separate entry of the source.
# What was measured:
# [1] = test system: HPNE-KRAS^G12D cells, HEKT/tH-KRAS^G12V cells, conventional PDAC lines, and PDCLs; experiment: Anchorage independent soft agar growth assay, human KRAS-mutant lines; type: cell-based; conditions: HPNE-KRAS^G12D, HEKT/tH-KRAS^G12V, conventional PDAC lines, PDCLs
# Method: Cells were seeded at 5000-15000 cells in 0.3% noble agar-DMEM suspension per well, in triplicate, in 24 well plate. For drug treatment, compound was added to cell suspension at 1× concentration. Seeded cells were fed with fresh 0.6% agar-DMEM mix once every 7-12 days. […] After 3-6 weeks, colonies were counted under microscope and imaged. Colony count was normalized to control and graphed in GraphPad Prism v7/8.
# p-MEK, p-ERK, and p-RSK = experiment: Immunoblots of MAPK pathway markers in human cell lines; type: cell-based; conditions: for p-MEK and p-ERK levels: serum-free
# Method: (§1) Standard immunoblotting procedure was followed. Cells were washed twice with ice-cold 1×PBS and lysed with ice-cold triton-X lysis buffer (25 mM Tris, pH 7.4, 150 mM NaCl, 5 mM EDTA, 1% Triton-X) containing 1× protease (10 μg mL-1 leupeptin, 700 ng mL-1 pepstatin, 170 ng mL-1 aprotinin, 1 mM PMSF) and phosphatase (10 mM NaF, 1 mM Na3VO4, 1 mM Na4P2O^7, 5 mM Na b-glycerophosphate) inhibitors. Lysates were quantified by Bradford assay (Thermo Scientific), normalized for concentration, and reduced and denatured with 6×SDS sample buffer followed by boiling for 5 minutes. 20-40 μg of protein per sample was resolved by SDS-PAGE, blotted on PVDF membrane and probed with primary antibodies (Cell Signaling Technologies: p-ERK1/2 (#4370), p-MEK1/2 (#9154), ERK1/2 (#4695), MEK1/2 (#8727), p-p105 (#4806), NFS2KB1 p105/p50 (#3035), p-IRAK4 (#11927), IRAK4 (#4363), ubiquitin (#43124), anti-HA (#3724), p-p90RSK (#11989), RSK1/2/3 (#9355), p-TPL2 (#4491), PARP (#9532), p-B-RAF S445 (#2696), BRAF (#9433S). Santa Cruz Biotechnology: GAPDH (#sc-32233), p-p65 S536 (#sc101752). Thermo Fisher Scientific: p-55 TPL2 (#PA5-36635). EMD Millipore: IRAK4 (#07-418). R&D systems: TPL2/MAP3K8 (#MAB4586). Novus Biologicals: anti-AU1 (#NB600-453). Abcam: p-p65 S276 (#ab194726)). Membranes were incubated with appropriate HRP-conjugated secondary antibodies (anti-mouse or anti-rabbit, (1:5000 dilution), Jackson Laboratory) and imaged using chemiluminescent substrate. Additional steps for immunoprecipitation include incubation of soluble fraction lysate with anti-HA magnetic beads (Thermo Scientific cat #88837) overnight at 4° C., washing, and elution using 1×SDS sample buffer and boiling as mentioned in manufacturer's protocol.
# p-p105, p-p65 = experiment: Immunoblots of NF-κB markers in PDAC cells; type: cell-based, human
# Method: as §1
# [2] = test system: serum-response element (SRE); experiment: Serum-response element (SRE) luciferase reporter assay; type: cell-based, human
# Method: (§2) Cells stably expressing plasmid encoding serum-response-element (SRE) or NFKB promoter driven Firefly luciferase and constitutive Renilla luciferase were seeded at equal density per well and treatment was initiated the next day for 16-24 duration. Alternatively, 293T reporter cells were transfected in duplicate or triplicate with 1 μg of appropriate plasmid DNA. Medium was replaced 16-18 hours later and at 48 hours post-transfection reporter activity was measured using Dual-Glo® Luciferase Assay System. Data was acquired using SpectraMax i3Microplate Reader and analysis was performed by calculating ratio of firefly:renilla. Values were normalized to control and graphed using GraphPad Prism v7/8 software.
# NF-κB reporter activity = experiment: NF-κB luciferase reporter assay; type: cell-based, human; conditions: KRAS-mutant PDAC cells (PANC-1); serial dilutions from 20 μM; 18 hours
# Method: as §2
# Hs695T cells [3] = experiment: Drug response and viability assay, Hs695T; type: cell-based, human
# Method: Cells were seeded at 1500-2500 cells per well in triplicates, in 96 well format. Next day, appropriate inhibitor was added in serial dilution from 1.00×102 μM or indicated single doses. Vehicle (DMSO) was added to match volume of inhibitor used for highest concentration. After 96-120 hours, 5× AlamarBlue® reagent (resazurin sodium salt, Sigma) was added to wells and incubated for 2-4 hours. Fluorescence at 585 nm (excitation 555 nm) was measured by SpectraMax i3 Microplate Reader. Raw values were normalized to vehicle, analyzed and graphed using GraphPad Prism v7/8 software.
# Hs695T cells [4] = experiment: Cell proliferation assay, Hs695T; type: cell-based, human
# Method: (§3) Cells were seeded in triplicate or quadruplicate at indicated density per well. When applicable, appropriate drug compound was added to cells the next day. Viable cells were counted using trypan blue dye exclusion and BioRad TC20 Automated Cell Counter at each time point.
# IGROV1 cells [5] = experiment: Cell proliferation assay, IGROV1; type: cell-based, human
# Method: as §3
# KRAS mutant cell lines = experiment: Clonogenic 2D assay, KRAS-mutant and PDAC lines; type: cell-based, human; conditions: HPNE-KRAS^G12D, HEKT/tH-KRAS^G12V, conventional PDAC lines, PDCLs
# Method: (§4) Cells were seeded at 500-1000 cells per well (6 well plate format) or 200-1000 cells per well (12 well format) in 10% serum media. For drug treatment, compound was added at time of seeding at indicated concentration. Media was replenished as needed over course of incubation. After 3-5 weeks, colonies were fixed with 4% formaldehyde, stained with 0.5% crystal violet and scanned using document scanner. Images were quantified using particle analyzer on ImageJ software and values were normalized to vehicle.
# IGROV1 cells [6] = experiment: Clonogenic 2D assay, IGROV1; type: cell-based, human
# Method: as §4
# orthotopic KI tumors = experiment: Orthotopic implantation of murine KI PDAC cells; type: in vivo; conditions: KI tumors in syngeneic FVB/NJ mice; 30 mg/kg, 14 days
# Method: For subcutaneous xenograft, approximately 5 million cells per flank were implanted into 6-week-old athymic nude mice (NU/J, Jackson Laboratory). When applicable, treatment with drug compound was initiated when tumors were palpable. FIRINOX (25 mg/kg 5-FU, 17.5 mg/kg irinotecan, and 3.35 mg/kg oxaliplatin) was administered via intraperitoneal injection weekly in 50 μL PBS. TPL2i was administered by intraperitoneal injection at 10 mg/kg in 40 μL DMSO, 5 days per week. Mice in the control group were treated with vehicle. Tumor volume was calculated as width^2×(length×0.5). Tumors were measured and mice were weighed 3 days per week. For orthotopic implantation, murine KI PDAC cells were injected into the pancreas of 7-week-old female FVB/NJ mice (Jackson Laboratory), as previously described (see e.g., Kim et al. (2009) Nat Protoc. 4 (11): 1670-1680). Six days after implantation, treatment with vehicle, FIRINOX (same dose as above), or TPL2i (30 mg/kg) was initiated for 14 days, at which time all mice were sacrificed. In vivo tumor progression was monitored using ultrasound (VScan, GE Healthcare) with final day representative tumor images shown.
# [7] = test system: poly (ADP-ribose) polymerase (PARP); experiment: Immunoblot of PARP cleavage; type: cell-based, human; conditions: PDAC lines; cotreatment with SN-38, 16 hours
# Method: as §1, with “Membranes were incubated with appropriate HRP-conjugated secondary antibodies (anti-mouse or anti-rabbit, (1:5000 dilution), Jackson Laboratory) and imaged using chemiluminescent substrate. Additional steps for immunoprecipitation include incubation of soluble fraction lysate with anti-HA magnetic beads (Thermo Scientific cat #88837) overnight at 4° C., washing, and elution using 1×SDS sample buffer and boiling as mentioned in manufacturer's protocol.” left out
# [8] = test system: LPS-induced TNF-α production; conditions: human monocytes; cited from earlier work
# [9] = HPAC cells, 16 hours, 10% serum
compound,measurement,setting,value
"N#Cc1cnc2cnc(NCc3cccnc3)cc2c1Nc1ccc(F)c(Cl)c1 [TPL2i, 4-[(3-Chloro-4-fluorophenyl)amino]-6-[(3-pyridinylmethyl)amino]-1,7-naphthyridine-3-carbonitrile]",3-dimensional (3D) AI growth,[1],dose-dependently suppressed
same,p-MEK and p-ERK levels,"p-MEK, p-ERK, and p-RSK; 293T cells expressing KRAS^G12V, 24 hours",dose-dependently suppressed
same,p-MEK and p-ERK,"p-MEK, p-ERK, and p-RSK; 293T cells transfected with oncogenic BRAF^V600E, 24 hours",neither TPL2i nor IRAK4i suppressed
same,p-MEK and p-ERK / MAPK activity,"p-MEK, p-ERK, and p-RSK; BxPc-3 PDAC line (BRAF mutation, WT KRAS)",neither TPL2i nor IRAK4i suppressed and not
same,"conditioned medium-induced p-TPL2, p-IRAK4, p-MEK, and p-ERK levels","p-MEK, p-ERK, and p-RSK; HEK T/tH cells with CM from HEK-T/tH KRAS^G12V cells",completely blocked
same,Gemcitabine-induced p-MEK and p-ERK levels,"p-MEK, p-ERK, and p-RSK; [9]",suppressible
same,p-ERK and p-MEK / MAPK activity,"p-MEK, p-ERK, and p-RSK; Hs695T cells (BRAF^V600E, MAP3K8^E188K), 24 hours, 10% serum",significantly suppressed
same,"p-MEK, p-ERK, and p-RSK / MAPK activity","p-MEK, p-ERK, and p-RSK; IGROV1 (MAP3K8^R442H), 1 μM, 2 hours",completely blocked; also recorded: completely abolished
same,"SN-38-induced p-MEK, p-ERK, and p-RSK","p-MEK, p-ERK, and p-RSK; PDAC lines, cotreatment, 16 hours",significantly attenuated
same,p-BRAF,"p-MEK, p-ERK, and p-RSK; Pa01C cells, incremental doses",without affecting
same,p-MEK and p-ERK,"p-MEK, p-ERK, and p-RSK; Pa01C cells, incremental doses",dose-dependently blocked
same,p-MEK and p-ERK levels,"p-MEK, p-ERK, and p-RSK; multiple KRAS-mutant PDAC lines, 36 hours",dose-dependently suppressed
same,p-p65 at S276,"p-p105, p-p65; 3 out of 4 cell lines",potently suppressed
same,p50 processing,"p-p105, p-p65; PDAC cell lines",did not lead to increased p50 processing
same,p-p65 at S536,"p-p105, p-p65; PDAC cell lines",not
same,p-p105,"p-p105, p-p65; PDAC cell lines, TPL2 inhibition",dose-dependently suppressed
same,p-p105 in SN-38-treated cells,"p-p105, p-p65; Pa01C cells",additionally suppressed
same,Gemcitabine-induced SRE activity,[2]; [9],suppressible
same,SRE reporter activity (MAPK cascades),"[2]; KRAS-mutant HPAC, MIA Paca-2, and Pa01C cells",dose-dependently suppressed
same,NF-κB reporter activity,NF-κB reporter activity,dose-dependently suppressed
same,viability,Hs695T cells [3],suppressed
same,in vitro proliferation,Hs695T cells [4],significantly suppressed
same,proliferation,IGROV1 cells [5],significantly decreased
same,2D clonogenic growth,KRAS mutant cell lines,dose-dependently suppressed
same,colony forming ability,IGROV1 cells [6],significantly decreased
same,growth of orthotopic tumors,orthotopic KI tumors,effective in significantly suppressing growth
same,PARP cleavage,[7],increased
same,LPS-induced TNF-α production,[8],can suppress

# Reference: patent US12173039B1, “TPL2 inhibiting agents, uses thereof, and detection of TPL2” (Washington University, priority 2021, dated 2024)
